Assay [1] has as its system liver cancer cells. The assay is described as follows: cell experiments: survival and death rate of cancer cells added with the short-chain peptide. Type of assay: cell-based. The source says: The percent of normal cancer cells 1 is equal to the number of normal cancer cells divided by the summation of the number of normal cancer cells, the number of interphase cancer cells and the number of mitotic phase cancer cells. The percent of interphase cancer cells 2 is equal to the number of interphase cancer cells divided by the summation of the number of normal cancer cells, the number of interphase cancer cells and the number of mitotic phase cancer cells. The percent of mitotic phase cancer cells 3 is equal to the number of mitotic phase cancer cells divided by the summation of the number of normal cancer cells, the number of interphase cancer cells and the number of mitotic phase cancer cells. The percent of dead cancer cells 4 is equal to the number of dead cancer cells divided by the summation of the number of normal cancer cells, the number of interphase cancer cells, the number of mitotic phase cancer cells and the number of dead cancer cells.
In cell experiments, the survival rate of cancer cells added with none of the short-chain peptide is as high as 95%. Apoptosis of cancer cells begins as soon as the short-chain peptide is added to cancer cells; it's obviously found out that after 24 hours, the survival rate of cancer cells is lowered to about 25% and the death rate is raised to about 70%, 35 to 40 times of normal death rate.
(§1) In Attachment, Photos 1˜3 show the cell cycles of liver cancer cells respectively added and not added with the particular short-chain peptide in cell experiments. Photos 4 and 5 show the growth of cancer cells respectively added and not added with the particular short-chain peptide in animal experiments.

Assay [2] relates to cancer cells. Put plainly: animal experiments: growth of cancer cells added with the short-chain peptide. It is filed as in vivo. The settings on record: after having been added with the short-chain peptide for a certain period of time.
Excerpt: as §1

“RGDLASLQKAAHGHVRKAFKSHVSTLTDLQPYMRQFVAHLQETSPLRD (RGDLASLQKAAHGHVRKAFKSHVSTLTDLQPYMRQFVAHLQETSPLRD) [short-chain peptide, unique short-chained peptide composed of 48 amino acids]”: the “effect on cell cleavage of cancer cells” value in assay [1] (cancer cells added with the short-chain peptide) is reported as “stagnating on the stage of cell cleavage for being further induced to apoptosis to death”. The “death rate of cancer cells” value in assay [1] (cell experiments, after 24 hours with the short-chain peptide) is recorded as “about 70%”. For the same substance, in assay [1] (cell experiments, after 24 hours with the short-chain peptide (without peptide 95%)), the “survival rate of cancer cells” value was “about 25%”. For the same substance, the “death rate of the liver cancer cells” value in assay [1] (liver cancer cells, after 24-hour culture, repeated experiments) was “about 70%”. Moreover, the “death of cancer cells in animal experiments (Photo 5)” value in assay [2] is reported as “die massively via apoptosis”.

(Values after US20100035802A1, “PARTICULAR SHORT-CHAIN PEPTIDE CANCER DRUG AND ITS TREATMENT” (priority 2007, published 2010).)
